Assay results reported in ChEMBL document CHEMBL1136113, “Synthesis and inhibitory activity of ubiquinone-acetogenin hybrid inhibitor with bovine mitochondrial complex I” (Bioorg Med Chem Lett, 2003).

molecular target: Mitochondrial complex I; NADH oxidoreductase (Bos taurus, UniProt P25708+P52505); experiment: Inhibition of complex I activity was determined by NADH oxidase assay using bovine heart submitochondrial particles.; assay type: protein-complex assay
Sequence (P25708 21-464 limits assumed, other chains not shown): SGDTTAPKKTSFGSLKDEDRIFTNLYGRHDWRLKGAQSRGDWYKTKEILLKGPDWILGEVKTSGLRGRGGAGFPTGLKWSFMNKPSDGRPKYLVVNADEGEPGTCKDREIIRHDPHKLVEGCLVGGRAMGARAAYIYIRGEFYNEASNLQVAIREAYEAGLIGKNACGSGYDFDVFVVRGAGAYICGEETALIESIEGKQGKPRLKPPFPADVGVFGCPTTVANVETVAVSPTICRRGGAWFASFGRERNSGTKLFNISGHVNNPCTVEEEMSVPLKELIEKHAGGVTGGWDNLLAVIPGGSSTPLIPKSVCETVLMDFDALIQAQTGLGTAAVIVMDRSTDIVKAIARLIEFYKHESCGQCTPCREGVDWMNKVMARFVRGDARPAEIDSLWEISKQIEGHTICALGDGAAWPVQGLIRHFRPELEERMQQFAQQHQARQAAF

Compound	IC50 [nM]
CCCCCCCCCC[C@@H](O)[C@H]1CC[C@H]([C@H]2CC[C@H]([C@H](O)CCCCCCCCCCCCc3c(C)c(OC)c(OC)c(OC)c3OC)O2)O1	280
CCCCC[C@@H](O)[C@H]1CC[C@H]([C@H]2CC[C@H]([C@H](O)CCCCC)O2)O1	4500
CCCCCCCCCC[C@@H](O)[C@H]1CC[C@H]([C@H]2CC[C@H]([C@H](O)CCCCCCCCCCCCC3=C(C)C(=O)C(OC)=C(OC)C3=O)O2)O1	1.2
CCCCCCCCCC[C@@H](O)[C@@H]1CC[C@@H]([C@@H]2CC[C@@H]([C@H](O)CCCCCCCCCC(O)CC3=CC(C)OC3=O)O2)O1 (stereo not given in full) [BULLATACIN]	0.9
CCCCCCCCCC[C@@H](O)[C@H]1CC[C@H]([C@H]2CC[C@H]([C@H](O)CCCCCCCCCCCCC3=C[C@H](C)OC3=O)O2)O1 [ISODESAACETYLUVARICIN]	0.9
